Test results published in US9834660B2, “Rare earth metal complexes that excite in the long UV wavelength range” (HONEYWELL INTERNATIONAL INC., priority 2007, dated 2017).

Assay: Lightfastness: fluorescence intensity of dried drops on filter paper before and after SOL2 irradiation (simulated sunlight behind window glass)
Format: physicochemical
Details: dried drop on filter paper; for fluorescence intensity after 20 h of irradiation: after 20 h of irradiation (SOL2), 366 nm; for starting fluorescence intensity under 366 nm wavelength: before SOL2 irradiation, formula (IV) 5% solution in water, comparator in ethanol
Excerpt: As used herein, “lightfast,” “lightfastness,” and “light stable” are used interchangeably as measures of the degree of stability of fluorescence when a compound or composition is irradiated with light energy. The lightfastness of the europium complex of formula (IV), Europium[tris-4,4′-[3-[4-(4-sulfophenyl)-2-pyridinyl]-1,2,4-triazine-5,6-diphenyl]-bis-benzenesulfonic acid, trisodium)] chloride, was compared with a known europium diketonate complex, europium tris-benzoyltrifluoro-acetone, as follows: a 5% solution containing formula (IV) (in water) and a solution of europium-tris-benzoyltrifluoro-acetone (in ethanol) were prepared. One drop from each solution was placed onto a piece of filter paper. The drops were dried in air. The dried drops were then irradiated with SOL2 equipment (simulation of sunlight behind window glass). The starting fluorescence intensity under 366 nm wavelength for the drop containing europium-tris-benzoyltrifluoro-acetone was 19.4 cd/m^2, and the starting fluorescence intensity for the drop containing formula (IV) was 11.5 cd/m^2. After 20 h of irradiation at 366 nm, the fluorescence intensity for the drop containing europium-tris-benzoyltrifluoro-acetone had decreased to only 3.2 cd/m^2, as compared with a fluorescence intensity for the drop containing formula (IV) that was 10.7 cd/m^2.
This occurred even though the molar concentration of the solution containing formula (IV) was lower than the molar concentration of europium-tris-benzoyltrifluoro-acetone (2.2×10^−4 mol versus 6×10^−4 mol, respectively).

Row | Substance | fluorescence intensity after 20 h of irradiation [cd/m^2] | starting fluorescence intensity under 366 nm wavelength [cd/m^2]
1 | Europium[tris-4,4′-[3-[4-(4-sulfophenyl)-2-pyridinyl]-1,2,4-triazine-5,6-diphenyl]-bis-benzenesulfonic acid, trisodium)] chloride [formula (IV)] | 10.7 | 11.5
2 | europium tris-benzoyltrifluoro-acetone [europium-tris-benzoyltrifluoro-acetone] | 3.2 | 19.4
